In patent publication US12576109B2, “Allogeneic human plasma and platelet derived products and uses thereof” (Consano Bio, Inc., priority 2024, dated 2026):

B1: PDGF-BB: PDGF-BB in cell media, positive control of the scratch assay (protein, UniProt P01127 82-190, looked up)
Platelet-derived growth …: SLGSLTIAEPAMIAECKTRTEVFEISRRLIDRTNANFLVWPPCVEVQRCSGCCNNRNVQCRPTQVQLRPVQVRKIEIVRKKPIFKKATVTLEDHLACKCETVAAARPVT

Assays:
THP-1 cells = assay: LPS-induced inflammation in THP-1 cells (MSD V-PLEX cytokines), Example 25; type: cell-based, human; conditions: Candesartan 1 μg/mL; 500 ng LPS; 24 hours
Experimental: A composition comprising […] was prepared as described in Example 23 and sterile filtered, referred to as Composition […]. 300,000 THP-1 cells were plated per well. Control wells included media only. Cells were contacted with LPS and test articles as outlined in Tables 20 and 21. For a positive control, cells were administered 1.0 μg/mL Candesartan. Candesartan is a […] and known to reduce the production of cytokines. Specifically, candesartan is an angiotensin receptor subtype 1 inhibitor and was utilized as a positive control. The cells were incubated for 1 hour. The cells were incubated, and samples of the supernatant were collected at 4 hours and 24 hours. The remaining cells were collected and analyzed for total cell count and percent viability. The Meso Scale Discovery (MSD; Rockville, […]) V-PLEX kit (4-PLEX) with IL-1b, IL-6, IL-8, and TNF-α were used to analyze the cytokines in the media at 4 and 24 hours after LPS stimulation.

[1] = tested on: normal human dermal fibroblasts (NHDF) cells; assay: Scratch assay (in vitro wound closure); type: cell-based; conditions: 3.7 ng/mL PDGF-BB, positive control
Experimental: The test articles are outlined in Table 30 below. Briefly, AHPPDP was prepared based on the methods disclosed herein.
3,000 normal human dermal fibroblasts (NHDF) cells were plated per well. […] Vehicle at 9% concentration was the negative control.
The output measures of the scratch assay were, total number of nuclei per well, sum of cell area per well, and sum of empty area per well.

Molecule	IL1-beta (THP-1 cells)	IL-6 (THP-1 cells)	IL-8 (THP-1 cells)	TNF-alpha (THP-1 cells)	wound healing [1]
CCOc1nc2cccc(C(=O)O)c2n1Cc1ccc(-c2ccccc2-c2nnn[nH]2)cc1 [Candesartan]	0 pg/mL	0 pg/mL	1.44 pg/mL	0 pg/mL	–
B1	–	–	–	–	Wound healing compared to vehicle condition was obtained
